Legend:
VCAM-1 = assay: Inhibitory effect on TNF-α-induced expression of VCAM-1 in HUVECs; type: cell-based; settings: Homo sapiens, HUVEC; HUVECs, TNF-α 20 U/ml, 5 hr; read-out: Inhibitory effect (IC50) on CAM-1 expression
Method: Inhibitory effect on expression of VCAM-1 and ELAM-1 in human umbilical vein-derived endothelial cells (HUVECs)
HUVECs were suspended in 199 medium containing 20% FCS, 20 μg/ml endothelial cell growth factor derived from bovine brain, and 100 μg/ml heparin, plated into 96-well microculture plates coated with collagen, and cultured at 37° C. in 5% CO2. When cells were grown to confluence, the cells received tumour necrosis factor (TNF)-α (20 U/ml for VCAM-1 expression, 100 U/ml for ELAM-1 expression) and cultured for 5 hr. After the cells were washed once with 199 medium, mouse anti-human VCAM-1 monoclonal antibody (2 μg/ml) or rat anti-human ELAM-1 monoclonal antibody (2 μg/ml) was added, and the cells were incubated for 1 hr at room temperature. After the cells were washed twice, peroxidase-conjugated anti-mouse immunoglobulin antibody or anti-rat immunoglobulin antibody was added, and the cells were incubated for 1 hr at room temperature. After the cells were washed 3 times, 2,2'-azino-bis(3-ethylbenzothiazolone-6-sulfonic acid) was added. After the plates were stood for 15 min at room temperature, absorbance at 405 nm with a reference wave length of 490 nm was measured with a 96-well microplate reader and was regarded as a indicator of VCAM-1 or ELAM-1 expression.

TNBS-induced colitis = assay: Effect on TNBS-induced colitis model in rats (oral administration); type: in vivo, SD rats; settings: for Intestinal weight (mean ± S.D.) / MPO activity (mean ± S.D.): TNBS, 7 days
Method: Effect on trinitrobenzenesufonic acid (TNBS)-induced colitis model in rats
Colitis was induced by intrarectal injection of TNBS solution (60 mg/ml in 50% EtOH, 500 μl/rat) to SD rats. Seven days later, rats were sacrificed and large intestine (8 cm from anus) was cut off and weighed. Myeloperoxidase (MPO) activity in the intestinal tissue was measured as follows and taken as an indicator of leukocyte infiltration: the intestinal tissue was homogenized and a cycle of freeze-thawing of the tissue was repeated 3 times. The supernatant obtained by centrifugation was assayed for MPO activity with substrate for peroxidase (o-phenylenediamine). MPO activity in the supernatant was calculated with the commercial MPO as a standard. The increases in intestinal weight and MPO activity as described above were taken as indicators of colitis. Test compound was suspended in 0.5% hydroxypropylmethylcellulose solution and administered p.o. (0.1 ml/10 g body weight) for 5 days beginning on the day of TNBS injection.

[1] = tested on: antigen induced Eosinophils accumulation into lungs; assay: Effect on antigen induced eosinophils accumulation into lungs in actively sensitized guinea pigs; type: in vivo, male Dunkin-Hartley guinea pigs; settings: 30 mg/kg p.o., BALF 24 h after antigen exposure
Method: Effect on antigen induced Eosinophils accumulation into lungs in actively sensitized guinea pigs
Male Dunkin-Hartley guinea pigs (4W, Japan SLC, Inc.) were used throughout this study.
Sensitized animals were orally administered (p.o.) with compound or solvent (0.5% hydroxymethylcellulose) 30 min. before final sensitization, 30 min. before antigen exposure and 4.5 h after antigen exposure.
Egg albumin (EA, 10 μg) was added to AI(OH)3 (10 mg) in sterile physiological saline (0.5 ml) and mixed in a blender. This mixture was injected intraperitoneally into recipients. And after 14 days and 21 days, the procedure was repeated. Seven days after the final sensitization procedure, Mepyramine 10 mg/kg was injected intraperitoneally into the sensitized animals. After 30 min., the animals were exposed to aerosol of 1% EA in sterile physiological saline for 5 min.
24 h after antigen exposure, the animals were killed by exsanguination and tracheae were cannulated. And the lungs were lavaged three times with 10 ml of sterile physiological saline. Lavage fluid (BALF) was centrifuged (800 rpm for 10 min. at 4° C.) and the cell pellet was resuspended in 10 ml of sterile physilolgical saline and total cell numbers in BALF were counted in a hemocytometer (MEK 4200, Nihon-kohden, Ltd.). Differential cell counts were made from centrifuged preparations stained with May-Giemsa stain.

CNC(=O)C[C@@H]1N=C(c2ccc(Cl)cc2)c2c(sc(C)c2C)-n2c(C)nnc21 [Example 1, (S)-N-methyl-4-(4-chloro-phenyl)-2,3,9-trimethyl-6H-thieno[3,2-f][1,2,4]triazolo[4,3-a]-[1,4]diazepine-6-acetamide 1/4 hydrate]
IC50 (VCAM-1): 25 nM | Intestinal weight (mean ± S.D.) (TNBS-induced colitis; 0.3 mg/kg/day p.o.): 1328.6 ± 1411.4 mg | MPO activity (mean ± S.D.) (TNBS-induced colitis; 0.3 mg/kg/day p.o.): 1.389 ± 2.806 U/ml | Intestinal weight (mean ± S.D.) (TNBS-induced colitis; 1 mg/kg/day p.o.): 574.2 ± 93.1 mg | MPO activity (mean ± S.D.) (TNBS-induced colitis; 1 mg/kg/day p.o.): 0.221 ± 0.020 U/ml | Effect on intestinal weight and leukocyte infiltration in colitis (in words) (TNBS-induced colitis; p.o., Tables 6A and 6B): significantly inhibit the increase in intestinal weight and the leukocyte infiltration caused by colitis in rats | Number of eosinophils [1]: 7.0 ± 1.4 × 10^6

Reference: US5712274A, “Thienotriazolodiazepine compounds and their pharmaceutical use” (Yoshitomi Pharmaceutical Industries, Ltd., priority 1995, dated 1998)
